This note sets out measurements from patent US20240279684A1, “CYTOSOLIC DELIVERY OF GENOME EDITING TOOLS” (SAPREME TECHNOLOGIES B.V., priority 2021, published 2024).

Data set [1] deals with cells with which the nanoplexes are contacted. Put plainly: Toxicity of saponin towards cells during transfection. The data set is classed as cell-based. The text has this:
It is part of the invention that the method or the use of the invention is characterized in that the nanoparticle comprises the nanoparticle-forming compound, such as a peptide, such as poly-lysine, and the nucleic acid in a mass ratio in a range of 3:1 to 15:1, preferably in a range of 3:1 to 9:1. Typically, the nanoparticle-forming compound is a poly-lysine peptide such as K16 peptide. Preferred is the method wherein the nucleic acid is a plasmid DNA, at least encoding for a Cas, preferably Cas9 (SEQ ID NO: 1), and optionally also encoding for the gRNA, and wherein the nanoparticles comprise in addition to the plasmid DNA at least one poly-lysine peptide, preferably poly-lysine K16 peptide (poly-lysine peptide consisting of sixteen lysine residues). Alternatively, the poly-lysine peptide is a peptide consisting of 8-25 lysine residues, preferably 10-20, more preferably 12-18. High in vitro transfection efficiency is obtained with the method of the invention when nanoparticles encompassing plasmid DNA, K16 peptide are prepared and applied, and are contacted with cells in the presence of a saponin selected from GE1741 and SO1861, and preferably the saponin is GE1741. Typically, the saponin concentration during transfection of the plasmid DNA into selected target cells in vitro is 1 μg/mL-5 μg/mL, preferably 2-4 μg/mL. […] Cells are typically contacted with a composition comprising the nanoplexes and a separate composition comprising the saponin, preferably GE1741. Thus, typically, the nanoparticles comprise the poly-lysine peptide and the nucleic acid, for example at least a plasmid DNA encoding for a Cas, preferably Cas9 (SEQ ID NO: 1), or a Cas with at least 90% sequence identity with this Cas9, preferably 90-99.5% sequence identity, such as 92%, 93%, 94%, 95% or 95-99%.

The next data set concerns Neuro-2A-cells. In words: Slc knock-out / GFP-Puromycin donor knock-in co-transfection, GFP fluorescence. The data set is classed as cell-based, murine. As to conditions: for transfection efficiency: PDD (Cas9-gRNA(Slc26a4)-DNA, GFP-Puromycin-LDS). How it is done: For further knock-out experiments, GE1741 and Neuro-2A cells were tested. The integration of a linear donor sequence (LDS) containing the gene for GFP into the genomic DNA was assessed using three kits from Origene (Herford, Germany): The Slcl9a3-KN2.0 (CAT #: KN515911), the Slc25a24-KN2.0 (CAT #: KN515970) and the Slc26a4-KN2.0 (CAT #: KN516006), which kits all three were mouse gene knock-out kits via CRISPR, non-homology mediated. The kits contained all-in-one plasmids, coding for Cas9 and the target specific sgRNAs. The Slc26a4 kit targeted the solute carrier family 26, member 4 in the chromosome 12. The indel efficiency by targeting the locus Slc26a4 could be already shown in Neuro-2A cells (Ryu et al., 2018), and for the linear-donor-kits (Slc19a3, Slc25a24) two different sgRNA-sequences were tested. […] Thus, for the knock-out of different solute carrier genes (Sic) in Neuro-2A-cells via CRISPR/Cas9, neuro-2A-cells were transfected with different kits in order to compare the efficiency of different targets (knocked-out gene) and different integration techniques (see FIG. 8 and FIG. 10).
FIG. 9A-D Transfection efficiency of saponin-mediated PDD (Cas9-gRNA (Slc26a4)-DNA, LDS-DNA)-transfections. A: Neuro-2A-cells were transfected with PDD-nanoplexes (Cas9-gRNA (Slc26a4)-DNA, GFP-Puromycin-LDS, 4:1 and 8:1 mass ratio when the mass of the peptide and the DNA are considered), with and without GE1741-Co-administration. The application of GE1741 led to a transfection efficiency of 20% and 30%, respectively, for the 4:1 and 8:1 mass ratio. Lipofectamin3000 served as positive control. B-D: Distinct fluorescence intensity increase of Neuro-2A-cells after saponin-mediated GFP-gene knock-in. n≥3; *: significant difference compared to the saponin-free transfection (only nuclease), U-test was performed. FIG. 9B: negative control; FIG. 9C: PDD(Cas9-gRNA(Slc26a4)-DNA, Puro-GFP-LDS), 4:1); FIG. 9D: PDD(Cas9-gRNA(Slc26a4)-DNA, Puro-GFP-LDS), 4:1)+GE1741.
FIG. 11A, B. Knockout of different solute carrier (Sic) in Neuro-2A-cells—homologous recombination vs. non-homologous recombination. Neuro-2A-cells were transfected using NHR kits and using HR kits in order to compare the efficiency for different targets and different integration techniques, under influence of the absence or presence of saponin GE1741 in the K16-peptide comprising nanoplexes. […] (A) co-transfection of plasmid DNA comprising nucleic acids encoding for Cas9 and gRNA(Slc26a4), and LDS DNA encoding for puromycin and green fluorescent protein (Puro-GFP-LDS). (B) co-transfection of plasmid DNA comprising nucleic acids encoding for Cas9 and gRNA(Slc), and donor template DNA encoding for puromycin and green fluorescent protein (Puro-GFP-DS) provided as DNA vector.
The co-transfection of Neuro-2A-cells with the plasmid DNA encoding for the Cas9 and the gRNA, and the LDS encoding for the GFP and the Puromycin, was done in a poly-lysine K16 peptide—nucleic acid ratio of 4:1 and 8:1, and plasmid DNA and LDS was complexed equally (500 ng/well). Transfections of cells were performed with and without GE1741 in the cell culture medium in which the cells were cultured. The transfection efficiency under influence of the absence or presence of the saponin was compared to transfection under influence of the presence of Lipofectamin3000 during transfection of the cells.
The integration of donor sequence into the genome can be performed via non-homologous recombination (‘NHR’) and homologous recombination (‘HR’). […]

For `CC(=O)OC1C(C)OC(OC2C(C)OC(OC(=O)C34CCC(C)(C)CC3C3=CCC5C6(C)CCC(OC7OC(C(=O)O)C(O)C(OC8OCC(O)C(O)C8O)C7OC7OC(CO)C(O)C(O)C7O)C(C)(C=O)C6CCC5(C)C3(C)CC4O)C(OC3OC(C)C(OC4OCC(O)C(OC5OCC(O)C(O)C5O)C4O)C(O)C3O)C2O)C(O)C1OC(C)=O` (stereo not drawn) [GE1741], the “highest non-toxic saponin Co-administration” value in data set [1] is 2 µg/mL. For the same compound, the “GFP expression (in words)” value with Neuro-2A-cells (HR-knock-in kits (Slc4a4, Slc11a2), circular donor) is given as “no GFP expression”. In addition, the “transfection efficiency vs saponin-free transfection (in words)” value in the data set with Neuro-2A-cells (NHR-knock-in kits with LDS (Slc26a4, Slc19a3, Slc25a24), U-test) is “significant increase of transfection efficiency”. For the same compound, the transfection efficiency was determined as 20% in the data set with Neuro-2A-cells (4:1 mass ratio) and 30% in the data set on Neuro-2A-cells (8:1 mass ratio). Further, the “transfected cells expressing fluorescence” value in the data set on Neuro-2A-cells (co-transfection Cas9-gRNA plasmid + LDS, 500 ng/well each, ratio 4:1 and 8:1) was “over 30%”.
